Assay type in all cases: functional
Holding throughout (settings): read-out: LC50 (the source's name)

For assay [1], the system named is A 172. Kind of assay: Compound was evaluated for the in vitro cytotoxicity against A-172 human glioblastoma cell line.
Assay [2] has as its system D283 Med. Kind of assay: Compound was evaluated for the in vitro cytotoxicity against […] Med human brain medulloblastoma tumor cell line.
Assay [3] concerns T98G. Kind of assay: Compound was evaluated for the in vitro cytotoxicity against T98G human glioblastoma cell line.

Six compounds from ChEMBL document CHEMBL1129227, “Synthesis and in vitro cytotoxic activity of novel hexahydro-2H-pyrido[1,2-b]isoquinolines against human brain tumor cell lines” (1997) can be followed below.

`C=C(C)[C@H]1CCN2Cc3ccccc3C[C@H]2[C@H]1O`: the CC50 in assay [1] was found to be 158 µM; in assay [2] it was 143 µM.

Turning to `C=C(C)[C@H]1CCN2Cc3ccccc3C[C@H]2[C@@H]1NCC(F)(F)F`, the CC50 in assay [3] was 172 µM; in assay [1], 157 µM; in assay [2] it was 40 µM.

For `CC(C)[C@H]1CCN2Cc3ccccc3C[C@H]2[C@H]1/N=C/c1ccc(Cl)cc1`, the CC50 in assay [3] was 45 µM; in assay [1], 97 µM; in assay [2], 50 µM.

In the case of `CC(C)[C@H]1CCN2Cc3ccccc3C[C@H]2[C@H]1/N=C/c1ccccc1`, the figures for the CC50 in assay [3] and in assay [1] were 222 µM and 226 µM, respectively.

`C=C(C)[C@H]1CCN2Cc3ccccc3C[C@H]2[C@H]1NCc1ccc(Cl)cc1`: the CC50 in assay [3] turned out to be 42 µM; in assay [1], 55 µM; in assay [2] it was 29 µM.

In the case of `C=C(C)[C@H]1CCN2Cc3ccccc3C[C@H]2[C@@H]1NCc1ccccc1`, the CC50 in assay [3] was determined as 43 µM; in assay [1], 58 µM; in assay [2], 53 µM.
